Results published in patent publication US6696481B2, “Salt of perindopril and pharmaceutical compositions containing it” (Les Laboratoires Servier, priority 2003, dated 2004).

How the values were obtained:
[1] = Shelf-life of tablets / pharmaceutical compositions; format: physicochemical
Source text: However, in view of the intrinsic fragility of perindopril, the tert-butylamine salt has not been capable of providing a complete solution to the problems of the product's stability to heat and humidity. Indeed, for marketing, tablets of perindopril tert-butylamine salt must, in certain countries, be protected with additional packaging measures. Moreover, even for temperate-climate countries, that instability has made it impossible to obtain a shelf-life of more than 2 years for the tablets. Finally, for marketing of the tablets, they have to be marked “to be stored at a temperature less than or equal to 30 degrees”.

[2] = Long-term stability study of immediate-release tablets, perindopril assayed by inverse-phase HPLC; format: physicochemical; details: for Percentage remaining (%): 6 months; for degradation rate: after 6 months
Method: Long-term stability studies carried out under very precise temperature and humidity conditions have yielded the results indicated in the Table hereinbelow.
In that study, perindopril was assayed by inverse-phase high-pressure liquid chromatography using, as eluant, an aqueous phase (comprising sodium heptane-sulphonate, and the pH of which is 2) and acetonitrile (67/33). Detection of the product was carried out by UV (215 nm).
The study was carried out using immediate-release tablets containing either 2.4 mg of the arginine salt of perindopril or 2.0 mg of the tert-butylamine salt of perindopril (each of the two tablets containing 1.7 mg of perindopril). The tablets were assayed 6 months after the start of storage of the tablets at different temperatures and different relative humidities (% R.H.).
The arginine salt used in this study is the L-arginine salt. It has been prepared according to a classical method of salification of organic chemistry.

| SMILES | shelf-life ([1]; pharmaceutical compositions, considered from the 6-month results) | Percentage remaining (%) ([2]; 25° C., 60% R.H.) | Percentage remaining (%) ([2]; 30° C., 60% R.H.) | Percentage remaining (%) ([2]; 40° C., 75% R.H.) | degradation rate [2] | shelf-life ([1]; tablets, temperate-climate countries) |
| --- | --- | --- | --- | --- | --- | --- |
| CCC[C@H](N[C@@H](C)C(=O)N1[C@H](C(=O)O)C[C@@H]2CCCC[C@@H]21)C(=O)OCC.N=C(N)NCCC[C@H](N)C(=O)O [Arginine salt of perindopril] | at least three years | 99.5% | 98.1% | 98.6% | practically no degradation | – |
| CC(C)(C)N.CCC[C@H](N[C@@H](C)C(=O)N1[C@H](C(=O)O)C[C@@H]2CCCC[C@@H]21)C(=O)OCC [tert-Butylamine salt of perindopril] | – | 101.0% | 94.4% | 67.2% | approximately 33% | ≤ 2 years |
